The source of these data is patent US20120258975A1, “Potent Small Molecule Inhibitors of Autophagy, and Methods of Use Thereof” (Shanghai Institute of Organic Chemistry, priority 2009, published 2012).

The test system of experiment [1] is LC3-GFP (H4-LC3-GFP cells). In words: Starvation induced autophagy in H4-LC3-GFP cells. Conditions: Hanks buffer 1 h; MBCQ 5 μM, 3-MA 10 mM, wortmannin 0.1 μM. Type of experiment: cell-based. The source says:
FIG. 2 depicts results relating to MBCQ inhibition of autophagy induced by starvation. Quantitative measurement of LC3-GFP spot number per cell (a), spot size per cell (b) and spot intensity per cell (c) using HCS and expressed as % of control.

The test system of another experiment is bax/bak DKO MEF cells. In words: Etoposide induced cell death of bax/bak DKO cells. Type of experiment: cell-based, mouse. Conditions: etoposide 8 μM; MBCQ 10 μM, spautin 10 μM, 3-MA 10 mM; 8 h. As for the experimental part:
C, cells were collected for western blotting using anti-LC3 antibody. α-tubulin was used as a control. D-F, Bax/bak DKO cells were treated with spautin (10 μM) or indicated concentration, in the presence of or absent etoposide (8 μM) for 8 h or indicated time. […] F, Cells were collected for western blotting using anti-LC3 antibody. α-tubulin was used as a control.
Autophagy has been proposed to contribute to cell death in a number of apoptotic deficient cell types. For example, bax/bak double deficient mouse embryonic fibroblast cells (DKO mefs) are highly resistant to apoptosis (Wei, M. C., Zong, W. X., Cheng, E. H., Lindsten, T., Panoutsakopoulou, V., Ross, A. J., Roth, K. A., MacGregor, G. R., Thompson, C. B., and Korsmeyer, S. J. (2001). Proapoptotic BAX and BAK: a requisite gateway to mitochondrial dysfunction and death. Science 292, 727-730).

For the next experiment, the system named is Vps34 complexes. In words: Levels of endogenous Beclin1, Vps34, Atg14L in H4 and 293T cells (western blot). Particulars: H4 cells and 293T cells; 10 μM; 3-MA 10 mM. Background: Immunoblotting shows a protein as a band on a membrane.
The subject of the next experiment is LC3-GFP (H4-LC3 cells). In words: LC3-GFP image-based autophagy assay in H4-LC3 cells. Type of experiment: cell-based. Particulars: with rapamycin; MY-5445 30 μM, dipyridamole 80 μM, IBMX 100 μM, sildenafil 10 μM. The protocol: FIG. 1 relates to identification of a small molecule inhibitor of autophagy by an image-based screen. A, structure of MBCQ. B, Quantitative analysis of LC3-GFP spot number per cell (a), spot size per cell (b), spot intensity per cell (c). The data are expressed as % of control vehicle treated cells. H4-LC3 cells were seeded in 96 well-plates and incubated with vehicle control (1% DMSO), 0.2 μM rapamycin with or without 10 μM MBCQ for indicated time, fixed with 4% paraformaldehyde and stained with 4,6-diamidino-2-phenylindole (DAPI, 3 μg/ml). Images of 1000 cells for each compound treatment were analyzed by ArrayScan HCS 4.0 Reader with a 20× objective (Cellomics, Pittsburgh, Pa.).
(§1) FIG. 14 depicts MBCQ derivatives that can inhibit autophagy. To calculate EC50, H4-LC3 cells were seeded in 96 well-plates and cultured in the presence of compounds in different concentration for 24 h, and then fixed with polyformate and stained with 4,6-diamidino-2-phenylindole (DAPI, 3 μg/ml). Images data were collected with an ArrayScan HCS 4.0 Reader with a 20× objective (Cellomics, Pittsburgh, Pa.) for DAPI labeled nuclei and GFP-LC3, a marker for autophagy. The Spot Detector Bio-Application was used to acquire and analyze the images after optimization. Images of 1000 cells for each compound treatment were analyzed to obtain average cell number per field, fluorescence spot number, area and intensity per cell. DMSO and rapamycin were used as negative or positive control, respectively. The percentages of changes of LC3-GFP were calculated by dividing with that of DMSO treated samples. Each treatment was done in triplicate for mean and SD. The images were also analyzed using a conventional fluorescence microscope for visual inspection. The experiments were repeated three times
as §1, with “15” for “14”, “with reduced or no ability to” for “that can”, “times.” for “times”
To explore the mechanism of autophagy and identify additional small molecules that can activate it, a high-throughput image-based screen for autophagy regulators was developed. This system takes advantage of the localization of light chain 3 coupled to GFP (LC3-GFP) to autophagosomal membrane upon induction of autophagy (Zhang, L., Yu, J., Pan, H., Hu, P., Hao, Y., Cai, W., Zhu, H., Yu, A. D., Xie, X., Ma, D., et al. (2007). Small molecule regulators of autophagy identified by an image-based high-throughput screen. Proc Natl Acad Sci USA 104, 19023-19028). […] Compounds that increase cellular levels of LC3-GFP, however, are not necessarily able to increase degradative activity of autophagy. Instead, the increases of LC3-GFP may be associated with cell death or may be a result of lysosomal defect and thus associated with blockage of autophagy. […]

Another experiment deals with PDE5 (Homo sapiens, UniProt O76074). In words: Determination of % inhibition of PDE5 activity. Particulars: for inhibition at 0.2 µM: Concentration = 0.2 μM; for inhibition at 2 µM: Concentration = 2 μM; for inhibition at 20 µM: Concentration = 20 μM. The format is biochemical.

Molecules are shown by their SMILES.

Description for Vps34 complexes: Twenty-four hours after the transfection, the cells were treated with indicated compounds for 12 h. The cell lysates were analyzed by western blotting using anti-HA, anti-flag or anti-tubulin. […] The cell lysates were harvested and analyzed by western blotting using: anti-Beclin1, anti-Atg14, anti-Vps34 and anti-UVRAG. Anti-α-tubulin was used as loading controls. […] The cell lysates were harvested and analyzed by western blotting using: anti-Beclin1 and anti-LC3. Anti-α-tubulin was used as loading controls.

Turning to `Cn1cnc(N)c2ncnc1-2` [3-MA, 3-methyladenine], the “starvation induced autophagy (LC3-GFP spot number, size, intensity)” value in experiment [1] is listed as “inhibited”. The “cell death induced by etoposide” value with bax/bak DKO MEF cells was “inhibits etoposide induced death”. Also, the “levels of endogenous Beclin1, Vps34 and Atg14L” value in the experiment on Vps34 complexes is recorded as “no effect on endogenous Beclin1”.

Take `CC(C)Cn1c(=O)n(C)c(=O)c2[nH]cnc21` [IBMX]: the activity on autophagy result in the experiment on LC3-GFP (H4-LC3 cells) is on record as “None of the PDE5 inhibitors tested”.

On to `Clc1cccc(Nc2nnc(-c3ccccc3)c3ccccc23)c1` [MY-5445], for which, in the experiment with LC3-GFP (H4-LC3 cells), the activity on autophagy entry is listed as “None of the PDE5 inhibitors tested”.

Turning to `CCCc1nn(C)c2c(=O)[nH]c(-c3cc(S(=O)(=O)N4CCN(C)CC4)ccc3OCC)nc12` [Sildenafil], the activity on autophagy entry with LC3-GFP (H4-LC3 cells) is listed as “None of the PDE5 inhibitors tested”. Further, at PDE5, the inhibition (as a rule, the drop in the measured response relative to a control, in per cent) at 0.2 µM was determined as 96.5%; the inhibition at 2 µM was 98.8%; the inhibition at 20 µM stood at 102%.

Regarding `CCCOc1ccccc1-c1nc2nn[nH]c2c(=O)[nH]1` [Zaprinast], at PDE5, the inhibition at 0.2 µM is 38%, the inhibition at 2 µM came to 88.4% and the inhibition at 20 µM is 102%.

In the case of `OCCN(CCO)c1nc(N2CCCCC2)c2nc(N(CCO)CCO)nc(N3CCCCC3)c2n1` [dipyridamole], the activity on autophagy entry with LC3-GFP (H4-LC3 cells) is “None of the PDE5 inhibitors tested”.
